{"source": "patent US6964949B2", "about": "“Pharmaceutical compositions for promoting the growth of gram-positive bacilli and increasing the acidity in the vagina and the use thereof” (Shanghai Jiao Da Onlly Co., Ltd., priority 2000, dated 2005)", "assay_type_in_all_cases": "cell-based", "key": {"Gram-negative bacilli [1]": {"tested_on": "Gram-negative bacilli", "experiment": "Experimental Example 1: bacterial vaginosis specimen suspension cultured in the composition, Gram smear", "settings": "10.0% sucrose, 1.0% yeast extract, 1.6% xanthan gum, pH 5.0, anaerobic, 37° C.", "procedure": "(§1) • (1) The preparation of the composition: Sucrose was used to prepare the following composition according to the method mentioned above: sucrose 10.0% (W/V), yeast extract 1.0% (W/V), Xanthan gum 1.6% (W/V), pH 5.0; then filled the composition into the tubes after sterilization, with each tube containing 5 ml, and pre-reduced for use. • (2) Specimen suspension: Vaginal secretion was taken from one of the patients suffering from typical bacterial vaginosis with a cotton swab, then the swab was washed in 2 ml sterilized Trypcase-soy Broth immediately, and thus the specimen suspension was ready. […] The tubes were placed in an incubator for cultivation, at 37° C., anaerobically. Then, culture samples were taken from the tubes at 10 hours and 24 hours later respectively. The Gram smears of the samples were observed and the pH values of the samples were measured."}, "Gram-negative cocci": {"tested_on": "Gram-negative cocci", "experiment": "Experimental Example 1: bacterial vaginosis specimen suspension cultured in the composition, Gram smear", "settings": "10.0% sucrose, 1.0% yeast extract, 1.6% xanthan gum, pH 5.0, anaerobic, 37° C.", "procedure": "as §1"}, "Gram-positive bacilli [2]": {"tested_on": "Gram-positive bacilli", "experiment": "Experimental Example 1: bacterial vaginosis specimen suspension cultured in the composition, Gram smear", "settings": "10.0% sucrose, 1.0% yeast extract, 1.6% xanthan gum, pH 5.0, anaerobic, 37° C.", "procedure": "as §1"}, "Gram-positive cocci [3]": {"tested_on": "Gram-positive cocci", "experiment": "Experimental Example 1: bacterial vaginosis specimen suspension cultured in the composition, Gram smear", "settings": "10.0% sucrose, 1.0% yeast extract, 1.6% xanthan gum, pH 5.0, anaerobic, 37° C.", "procedure": "as §1"}, "[4]": {"tested_on": "vaginal secretion specimen of a patient suffering from typical bacterial vaginosis", "experiment": "Experimental Example 1: pH of culture samples (production of acids)", "settings": "10.0% sucrose, 1.0% yeast extract, 1.6% xanthan gum, pH 5.0, anaerobic, 37° C.", "procedure": "as §1"}, "Gram-negative bacilli [5]": {"tested_on": "Gram-negative bacilli", "experiment": "Experiment Example 3: 2.5% maltose or sucrose, specimen culture, Gram smear", "settings": "2.5% saccharide, 1.0% yeast extract, 1.6% xanthan gum, pH 6.2, candle jar, 37° C.", "procedure": "(§2) • (1) The preparation of the compositions: Maltose and sucrose were used respectively to prepare the following composition according to the methods mentioned above: • A. 2.5% maltose, 1.0% yeast extract, 1.6% xanthan gum, pH adjusted to 6.2; • B. 2.5% sucrose, 1.0 yeast extract, 1.6% xanthan gum, pH adjusted to 6.2; • (2) The preparation of the test tubes: Compositions as prepared above were filled into the test tubes, with each tube containing 5 ml, sterilized, and kept until use for experiment. • (3) Specimen suspension: Vaginal secretion was taken from one of the patients suffering from typical bacterial vaginosis with a cotton swab, then the swab was washed in 2 ml sterilized Trypcase-soy Broth immediately, and thus the specimen suspension was ready. […] Then the tubes were placed in a candle jar and cultivated at 37° C. After 24 hours and 48 hours' culture, culture samples were taken respectively from each of the tubes, then the Gram smears of the samples were observed and the pH values of culture samples were tested."}, "Gram-positive bacilli [6]": {"tested_on": "Gram-positive bacilli", "experiment": "Experiment Example 3: 2.5% maltose or sucrose, specimen culture, Gram smear", "settings": "2.5% saccharide, 1.0% yeast extract, 1.6% xanthan gum, pH 6.2, candle jar, 37° C.", "procedure": "as §2"}, "Gram-positive cocci [7]": {"tested_on": "Gram-positive cocci", "experiment": "Experiment Example 3: 2.5% maltose or sucrose, specimen culture, Gram smear", "settings": "2.5% saccharide, 1.0% yeast extract, 1.6% xanthan gum, pH 6.2, candle jar, 37° C.", "procedure": "as §2"}, "[8]": {"tested_on": "vaginal secretion specimen of a patient suffering from typical bacterial vaginosis", "experiment": "Experiment Example 4: pH of culture samples (production of acids)", "settings": "17.0% saccharide, 1.0% yeast extract, 1.6% xanthan gum, pH 6.2, candle jar, 37° C.", "procedure": "as §2, with “• (1)The” for “• (1) The”, “composition in” for “composition according to”, “A. 17.0%” for “A. 2.5%”, “B. 17.0%” for “B. 2.5%”, “sucrose, 1.0%” for “sucrose, 1.0”, “Compositions” for “Compositions as”"}, "[9]": {"tested_on": "vaginal secretion specimen of a patient suffering from typical bacterial vaginosis", "experiment": "Experiment Example 5: pH of culture samples (production of acids)", "settings": "10.0% maltose, 1.0% yeast extract, 1.6% xanthan gum", "text": "• (1)The preparation of the compositions: Maltose was used to prepare the following compositions according to the method mentioned above: • A. 10.0% maltose, 1.0% yeast extract, 1.6% xanthan gum, pH adjusted to 4.4; • B. 10.0% maltose, 1.0% yeast extract, 1.6% xanthan gum, pH adjusted to 4.8; • C. 10.0% maltose, 1.0% yeast extract, 1.6% xanthan gum, pH adjusted to 5.1; • D. 10.0% maltose, 1.0% yeast extract, 1.6% xanthan gum, pH adjusted to 5.4; • E. 10.0% maltose, 1.0% yeast extract, 1.6% xanthan gum, pH adjusted to 5.8; • F. 10.0% maltose, 1.0% yeast extract, 1.6% xanthan gum, pH adjusted to 6.4; • G. 10.0% maltose, 1.0% yeast extract, 1.6% xanthan gum, pH adjusted to 6.8; • H. 10.0% maltose, 1.0% yeast extract, 1.6% xanthan gum, pH adjusted to 7.2; • (2)The preparation of the test tubes: Compositions prepared above were filled into the test tubes, with each tube containing 5 ml, sterilized, and kept until use for experiments. • (3)Specimen suspension: Vaginal secretion was taken from one of the patients suffering from typical bacterial vaginosis with a cotton swab, then the swab was washed in 2 ml sterilized Trypcase-soy Broth immediately, and thus the specimen suspension was ready. […] Then the tubes were placed in a candle jar and cultivated at 37° C. After 24 hours and 48 hours' culture, culture samples were taken respectively from each of the tubes, then the Gram smears of the samples were observed and the pH values of culture samples were tested."}}}
{"smiles": "OC[C@H]1O[C@@](CO)(O[C@H]2O[C@H](CO)[C@@H](O)[C@H](O)[C@H]2O)[C@@H](O)[C@@H]1O", "note": "[Sucrose, sucrose]", "values": [{"measurement": "Bacteria G − b (Gram-negative bacilli), 10 hours-culture", "setting": "Gram-negative bacilli [1]; 10 hours", "result": "G − b, ++ (About 10-99 bacteria per field of vision under oil-immersion lens)"}, {"measurement": "Bacteria G − b (Gram-negative bacilli), 24 hours-culture", "setting": "Gram-negative bacilli [1]; 24 hours", "result": "G − b, ++ (About 10-99 bacteria per field of vision under oil-immersion lens)"}, {"measurement": "Bacteria G − c (Gram-negative cocci), 24 hours-culture", "setting": "Gram-negative cocci", "result": "G − c, + (1-9 bacteria per field of vision under oil-immersion lens)"}, {"measurement": "Bacteria G + b (Gram-positive bacilli), 10 hours-culture", "setting": "Gram-positive bacilli [2]; 10 hours", "result": "G + b, +++ (About 100 bacteria or more per field vision under oil-immersion lens, even uncountable)"}, {"measurement": "Bacteria G + b (Gram-positive bacilli), 24 hours-culture", "setting": "Gram-positive bacilli [2]; 24 hours", "result": "G + b, ++++"}, {"measurement": "Bacteria G + c (Gram-positive cocci), 24 hours-culture", "setting": "Gram-positive cocci [3]", "result": "G + C, ++ (About 10-99 bacteria per field of vision under oil-immersion lens)"}, {"measurement": "pH, 10 hours-culture", "setting": "[4]; 10 hours", "result": 5.0}, {"measurement": "pH, 24 hours-culture", "setting": "[4]; 24 hours", "result": 4.0}, {"measurement": "Bacteria G − b (Gram-negative bacilli), 24 hours-culture", "setting": "Gram-negative bacilli [5]", "result": "G − b, + (1-9 bacteria per field of vision under oil-immersion lens)"}, {"measurement": "Bacteria G − b (Gram-negative bacilli), 48 hours-culture", "setting": "Gram-negative bacilli [5]", "result": "G − b, ++ (About 10-99 bacteria per field of vision under oil-immersion lens)"}, {"measurement": "Bacteria G + b (Gram-positive bacilli), 24 hours-culture", "setting": "Gram-positive bacilli [6]", "result": "G + b, + (1-9 bacteria per field of vision under oil-immersion lens)"}, {"measurement": "Bacteria G + b (Gram-positive bacilli), 48 hours-culture", "setting": "Gram-positive bacilli [6]", "result": "G + b, + (1-9 bacteria per field of vision under oil-immersion lens)"}, {"measurement": "Bacteria G + c (Gram-positive cocci), 24 hours-culture", "setting": "Gram-positive cocci [7]", "result": "G + c, + (1-9 bacteria per field of vision under oil-immersion lens)"}, {"measurement": "Bacteria G + c (Gram-positive cocci), 48 hours-culture", "setting": "Gram-positive cocci [7]", "result": "G + c, + (1-9 bacteria per field of vision under oil-immersion lens)"}, {"measurement": "pH, 24 hours culture", "setting": "[8]", "result": 6.2}, {"measurement": "pH, 48 hours culture", "setting": "[8]", "result": 5.4}]}
{"smiles": "OC[C@H]1O[C@H](O[C@H]2[C@H](O)[C@@H](O)[C@H](O)O[C@@H]2CO)[C@H](O)[C@@H](O)[C@@H]1O", "note": "[Maltose, maltose]", "values": [{"measurement": "Bacteria G − b (Gram-negative bacilli), 24 hours-culture", "setting": "Gram-negative bacilli [5]", "result": "G − b, +++ (About 100 bacteria or more per field vision under oil-immersion lens, even uncountable)"}, {"measurement": "Bacteria G − b (Gram-negative bacilli), 48 hours-culture", "setting": "Gram-negative bacilli [5]", "result": "G − b, + (1-9 bacteria per field of vision under oil-immersion lens)"}, {"measurement": "Bacteria G + b (Gram-positive bacilli), 24 hours-culture", "setting": "Gram-positive bacilli [6]", "result": "G + b, + (1-9 bacteria per field of vision under oil-immersion lens)"}, {"measurement": "Bacteria G + b (Gram-positive bacilli), 48 hours-culture", "setting": "Gram-positive bacilli [6]", "result": "G + b, +++ (About 100 bacteria or more per field vision under oil-immersion lens, even uncountable)"}, {"measurement": "Bacteria G + c (Gram-positive cocci), 24 hours-culture", "setting": "Gram-positive cocci [7]", "result": "G + c, − (No or less than one bacterium per field of version under oil-immersion lens)"}, {"measurement": "Bacteria G + c (Gram-positive cocci), 48 hours-culture", "setting": "Gram-positive cocci [7]", "result": "G + c, + (1-9 bacteria per field of vision under oil-immersion lens)"}, {"measurement": "pH, 24 hours culture", "setting": "[8]", "result": 5.4}, {"measurement": "pH, 48 hours culture", "setting": "[8]", "result": 5.1}, {"measurement": "pH, 24 hours culture", "setting": "[9]; pH of the composition 4.4", "result": 4.4}, {"measurement": "pH, 48 hours culture", "setting": "[9]; pH of the composition 4.4", "result": 4.4}, {"measurement": "pH, 24 hours culture", "setting": "[9]; pH of the composition 4.8", "result": 4.8}, {"measurement": "pH, 48 hours culture", "setting": "[9]; pH of the composition 4.8", "result": "4.4-4.8"}, {"measurement": "pH, 24 hours culture", "setting": "[9]; pH of the composition 5.1", "result": 4.6}, {"measurement": "pH, 48 hours culture", "setting": "[9]; pH of the composition 5.1", "result": "4.4-4.6"}, {"measurement": "pH, 24 hours culture", "setting": "[9]; pH of the composition 5.4", "result": 5.4}, {"measurement": "pH, 48 hours culture", "setting": "[9]; pH of the composition 5.4", "result": "4.1-4.4"}, {"measurement": "pH, 24 hours culture", "setting": "[9]; pH of the composition 5.8", "result": 4.8}, {"measurement": "pH, 48 hours culture", "setting": "[9]; pH of the composition 5.8", "result": 4.1}, {"measurement": "pH, 24 hours culture", "setting": "[9]; pH of the composition 6.4", "result": 4.4}, {"measurement": "pH, 48 hours culture", "setting": "[9]; pH of the composition 6.4", "result": 4.1}, {"measurement": "pH, 24 hours culture", "setting": "[9]; pH of the composition 6.8", "result": 5.4}, {"measurement": "pH, 48 hours culture", "setting": "[9]; pH of the composition 6.8", "result": 4.4}, {"measurement": "pH, 24 hours culture", "setting": "[9]; pH of the composition 7.2", "result": 5.4}, {"measurement": "pH, 48 hours culture", "setting": "[9]; pH of the composition 7.2", "result": 4.1}]}
